Data reported in patent publication US9133224B2, “Macrocyclic kinase inhibitors” (OSI Pharmaceuticals, LLC, priority 2010, dated 2015).
Read-outs that look alike come from different tables or passages of the source.

Legend:
FAK = target: T1, FAK (Homo sapiens, UniProt Q05397); test: Cell-based capture ELISA for inhibition of FAK autophosphorylation [pY397] in U87MG cells
T1 construct: endogenous in cells; host or cells: U87MG glioblastoma cells (ATCC HTB-14)
Experimental: Cell-Based Assays for Inhibition of FAK Autophosphorylation: MiaPaCa2 and U87MG
The ability of compounds to inhibit FAK autophosphorylation was determined in a cell-based capture ELISA assay using U87MG glioblastoma cells (ATCC, Cat # HTB-14) and the FAK [pY397]ELISA kit from Invitrogen (KHO0441). The assay determines the ability of compounds to block endogenous autophosphorylation of FAK stimulated by fibronectin. Cells plated on fibronectin coated 96-well plate were incubated with compounds at various concentrations in the complete growth medium for 2 h. Cell lysates were then prepared and FAK protein was captured onto a FAK antibody-coated 96-well ELISA plate. The phosphotyrosine content of FAK protein was then monitored by quantitation of degree of binding of an antibody that recognizes only the phosphorylated FAK at Y397 within the captured protein.
Reagents Provided in Biosource FAK [pY397]
Cultures of U87MG cells growing in MEM (Earles) containing non-essential amino acids, sodium pyruvate (1 mM), […] (1%) and 10% fetal bovine serum were detached by trypsin-EDTA and suspended in cell growth medium. Cells were then plated onto fibronectin (600 ng/well)-coated 96-well flat bottom plates at 1.7×10^4 cells per well in 60 uL cell growth medium and incubated overnight at 37° C. in a CO2 incubator.
Compound dilutions were prepared from 10 mM DMSO stocks by dilution in cell growth medium, the final concentration of DMSO in the assay being 0.6%. […] The cells were then incubated with compounds at 37° C. for 2 h. The medium was removed by aspiration and cells were lysed by addition of 20 uL of ice-cold cell lysis buffer per well. The plates were kept on ice for 20 min and 50 uL of standard diluent was added to each well. 50 uL of cell lysate from each well was transferred to respective wells in an assay plate and 50 uL of detection antibody was added to all wells except H1-H6 which were no antibody control wells. Capture assay plates were incubated overnight in a cold room.
Following incubation of the cell lysates and detection antibodies in the ELISA plate, the wells were washed 4 times with 120 uL of wash buffer (1×), then 100 uL of diluted HRP conjugated antibody (1:100 dil in diluent) was added to each well, and the plate was incubated at RT for 30 min. The wells were then washed for 4 times with 120 uL of wash buffer (1×) and 100 uL of chromogen was added to each well and incubated in the dark at RT for 5-10 min. 100 uL of stop solution was added to each well and the absorbance measured at 450 nm, 0.1 s.
Comparison of the assay signals obtained in the presence of compound with those of positive and negative controls (cells with no compound and no detection antibody being added), allows degree of inhibition of phospho-FAK [Y397] to be determined over a range of compound concentrations. […] The assay as described above was modified to determine the effect of inclusion of 50% (v/v) mouse or human plasma. In this assay, the compound plate was prepared as 2× concentration in 100 uL of 100% mouse or human plasma, and 60 uL of this was added to 60 uL of culture medium and incubated at 37° C. incubator for 2 h. The rest of the assay was carried out as described above.

[1] = target: T2, GST-tagged full-length FAK enzyme (PTK2) (Homo sapiens, UniProt Q05397); test: Biochemical Omnia Assay (FAK)
T2 construct: GST-tagged full-length FAK enzyme (PTK2, Invitrogen PV4085); GST; purchased Invitrogen PV4085
T2 sequence (Q05397 whole entry): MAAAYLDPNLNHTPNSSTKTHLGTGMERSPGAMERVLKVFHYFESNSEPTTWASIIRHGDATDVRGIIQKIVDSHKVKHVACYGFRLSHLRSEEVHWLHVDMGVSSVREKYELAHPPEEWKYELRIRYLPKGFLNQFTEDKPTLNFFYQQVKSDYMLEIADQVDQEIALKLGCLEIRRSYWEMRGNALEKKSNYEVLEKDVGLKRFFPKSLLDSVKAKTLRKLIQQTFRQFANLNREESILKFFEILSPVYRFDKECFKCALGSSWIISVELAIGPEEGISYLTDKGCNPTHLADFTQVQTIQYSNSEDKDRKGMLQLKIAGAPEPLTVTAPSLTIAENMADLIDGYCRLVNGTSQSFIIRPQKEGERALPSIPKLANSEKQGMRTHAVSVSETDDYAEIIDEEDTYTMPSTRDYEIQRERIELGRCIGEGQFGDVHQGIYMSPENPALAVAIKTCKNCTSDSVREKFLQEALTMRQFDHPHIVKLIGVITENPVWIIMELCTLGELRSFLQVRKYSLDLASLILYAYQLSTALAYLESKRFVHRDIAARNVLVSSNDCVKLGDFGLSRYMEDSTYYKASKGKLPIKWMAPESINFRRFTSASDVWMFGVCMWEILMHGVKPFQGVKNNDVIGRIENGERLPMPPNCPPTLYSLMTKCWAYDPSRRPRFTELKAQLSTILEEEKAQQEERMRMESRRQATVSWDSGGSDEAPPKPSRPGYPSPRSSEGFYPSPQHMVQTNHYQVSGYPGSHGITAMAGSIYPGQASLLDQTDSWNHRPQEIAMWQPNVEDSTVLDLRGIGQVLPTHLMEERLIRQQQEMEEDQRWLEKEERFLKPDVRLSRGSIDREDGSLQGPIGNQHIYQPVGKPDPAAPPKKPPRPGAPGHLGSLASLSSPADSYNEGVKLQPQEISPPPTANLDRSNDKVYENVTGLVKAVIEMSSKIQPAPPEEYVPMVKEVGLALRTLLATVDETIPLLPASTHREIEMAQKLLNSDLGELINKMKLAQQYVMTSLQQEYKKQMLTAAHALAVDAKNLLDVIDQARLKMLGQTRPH
Experimental: Biochemical Omnia Assay Protocol
The Omnia Assay (Invitrogen) has been optimized for GST-tagged full-length FAK enzyme (PTK2, Invitrogen PV4085).
All compound concentrations were assayed in duplicate. Initial compound dilutions were prepared at 100× concentration in 100% DMSO from a 10 mM stock solution. Compounds were further diluted 1:25 in assay buffer resulting in a 4× concentrated solution.
In running the assay, 5 μL of the above 4× concentrated compound solution (or 4% DMSO for positive controls) was added to the assay plate followed by 5 μL of a solution containing peptide (40 μM) and ATP (200 μM) in assay buffer. The reaction was initiated by the addition of 10 μL of FAK (50 nM) in assay buffer, or assay buffer alone for negative controls. The increase in fluorescence due to peptide phosphorylation was monitored continuously as a function of time using a Spectramax M5 plate reader (Molecular Devices) equipped with SoftMax Pro 5.2 software.
IC50 values were determined from the slopes of the linear progress curves by non-linear curve-fitting using GraphPad Prism 5 (GraphPad Software, Inc.).

[2] = 50% (v/v) human plasma, mean IC50, read-out: FAK Activity Mechanistic (U87MG) HP
[3] = 50% (v/v) mouse plasma, mean IC50, read-out: FAK Activity Mechanistic (U87MG) MP
[4] = no plasma present, mean IC50, read-out: FAK Activity Mechanistic (U87MG) NP
[5] = mean IC50, [ATP] = 50uM, read-out: FAK Activity Biochemical OMNIA, [ATP] = 50uM

T1 sequence (Q05397 whole entry): as above

IC50 (FAK; [3]) [nM] | IC50 [1, 5] [nM] | SMILES | IC50 (FAK; [2]) [nM] | IC50 (FAK; [4]) [nM] | IC50 [1] [nM]
400 to 4000 | < 400 | CCCP1(=O)Cc2ccc(c(OC)c2)Nc2ncc(C(F)(F)F)c(n2)Nc2ccc(nc2C(=O)NC)-c2cnn(c2)CCCO1 (racemic) [Example 37] | < 400 | < 400 | –
– | – | CCOP1(=O)Cc2ccc(c(OC)c2)Nc2ncc(C(F)(F)F)c(n2)Nc2ccc(nc2C(=O)NC)-c2cnn(c2)CC(F)(F)CO1 (single isomer, unassigned) [Example 59B] | 400 to 4000 | 400 to 4000 | < 400
< 400 | < 400 | CNC(=O)c1nc2ccc1Nc1nc(ncc1C(F)(F)F)Nc1ccc(cc1OC)CP(=O)(C(C)C)OCCCn1cc-2cn1 (racemic) [Example 68] | < 400 | < 400 | –
– | – | CCOP1(=O)Cc2ccc(cc2)Nc2ncc(C(F)(F)F)c(n2)Nc2ccc(c3c2C(=O)N(C)C3)-c2cnn(c2)CCCO1 (racemic) [Example 2] | < 400 | – | < 400
– | – | CCNC(=O)c1nc2ccc1Nc1nc(ncc1C(F)(F)F)Nc1ccc(cc1OC)CP(=O)(OCC)OCC1(COC1)Cn1cc-2cn1 (racemic) [Example 45] | < 400 | < 400 | < 400
– | – | CCOP1(=O)Cc2ccc(c(OC)c2)Nc2ncc(C(F)(F)F)c(n2)Nc2ccc(nc2C(=O)NC)-c2cnn(c2)CCCO1 (single isomer, unassigned) [Example 6B] | < 400 | < 400 | < 400
– | – | CCOP1(=O)Cc2ccc(c(OC)c2)Nc2ncc(C(F)(F)F)c(n2)Nc2ccc(nc2C(=O)NC)-c2cnn(c2)CCCO1 (racemic) [Example 6] | < 400 | < 400 | < 400
– | – | CCOP1(=O)Cc2ccc(c(OC)c2)Nc2ncc(C(F)(F)F)c(n2)Nc2ccc(nc2C(=O)NC)-c2cnn(c2)CC[C@@H](C)O1 (mixture of isomers) [Example 69] | < 400 | < 400 | –
< 400 | – | CNC(=O)c1nc2ccc1Nc1nc(ncc1C(F)(F)F)Nc1ccc(cc1OC)CP(=O)(OC(C)C)OCCCn1cc-2cn1 (racemic) [Example 72] | < 400 | < 400 | –
– | – | CCOP1(=O)Cc2ccc(c(OC)c2)Nc2ncc(C(F)(F)F)c(n2)Nc2ccc(nc2C(=O)NC)-c2cnn(c2)CC2(CC2)CO1 (racemic) [Example 63] | < 400 | < 400 | –
< 400 | – | CCP1(=O)Cc2ccc(c(OC)c2)Nc2ncc(C(F)(F)F)c(n2)Nc2ccc(nc2C(=O)NC)-c2cnn(c2)CC2(CC2)CO1 (racemic) [Example 71] | < 400 | < 400 | –
< 400 | – | CNC(=O)c1nc2ccc1Nc1nc(ncc1C(F)(F)F)Nc1ccc(cc1OC)CP(=O)(OC(C)C)OCCCn1cc-2cn1 (single isomer, unassigned) [Example 72A] | 400 to 4000 | < 400 | –
– | < 400 | CNC(=O)c1nc2ccc1Nc1nc(ncc1C(F)(F)F)Nc1ccc(cc1OC)CP(C)(=O)OCCCn1cc-2cn1 (single isomer, unassigned) [Example 61B] | – | – | –

SMILES | IC50 (FAK; [3]) [nM] | IC50 [1, 5] [nM] | IC50 (FAK; [2]) [nM] | IC50 (FAK; [4]) [nM] | IC50 [1] [nM]
CCO[P@@]1(=O)Cc2ccc(c(OC)c2)Nc2ncc(C(F)(F)F)c(n2)Nc2cc(F)c(cc2C(=O)NC)-c2cnn(c2)CCCO1.CCO[P@]1(=O)Cc2ccc(c(OC)c2)Nc2ncc(C(F)(F)F)c(n2)Nc2cc(F)c(cc2C(=O)NC)-c2cnn(c2)CCCO1 (mixture of isomers) [Example 7] | < 400 | < 400 | < 400 | < 400 | –
CCOP1(=O)Cc2ccc(c(OC)c2)Nc2ncc(C(F)(F)F)c(n2)Nc2ccc(nc2C(=O)NC)-c2c(C)nn(c2C)CCCO1 (racemic) [Example 43] | – | < 400 | 400 to 4000 | < 400 | –
CCOP1(=O)Cc2ccc(c(OC)c2)Nc2ncc(C(F)(F)F)c(n2)Nc2ccc(nc2C(=O)NC)-c2cnn(c2)CC[C@H](C)O1 (mixture of isomers) [Example 70] | 400 to 4000 | – | < 400 | < 400 | –
CCOP1(=O)Cc2ccc(c(OC)c2)Nc2ncc(C(F)(F)F)c(n2)Nc2ccc(c(F)c2C(=O)NC)-c2cnn(c2)CCCO1 (racemic) [Example 27] | 400 to 4000 | – | – | < 400 | < 400
